Measurements: patent US20250041377A1, “PHARMACEUTICAL USE” (ENLITISA (SHANGHAI) PHARMACEUTICAL CO., LTD., priority 2018, published 2025)
Where a SMILES comes first, the peptide text is derived from it. Where no end group is shown, it is not given here. [ ]: non-standard residue; d: D form. Dopa = N[C@@H](Cc1ccc(O)c(O)c1)C(=O)O; Hyp = O=C(O)[CH]1C[CH](O)CN1; 3Hyp = 3-hydroxyproline

Key:
[1] = DPPH assay of antioxidant capacity; conditions: 200 μL peptide solution in 3.8 mL 0.06 mg/mL DPPH; 1.5 hours, room temperature, dark; absorbance 517 nm
Protocol: The antioxidant capacity of Compound B was determined using a 2,2-diphenyl-1-(2,4,6-trinitrophenyl) hydrazyl (DPPH) assay.
Compounds A and B were obtained as described in Example 3 above. The peptide powders were stored at −20° C. and dissolved in saline at concentrations as indicated below. DPPH was purchased from Sigma-Aldrich China, Shanghai. Other reagents employed and identified below were purchased from Shanghai Aladdin Bio-Chem Technology Co. Ltd., China.
The DPPH method is one of the most commonly used methods in determination of antioxidant capacity. DPPH is a stable, nitrogen-centred free radical with a dark purple solution and a maximum absorption peak at 517 nm. When a free radical scavenger is present in the reaction system, it can be paired with a single electron of DPPH., and the absorption peak at 517 nm is gradually dissipated.
The degree of colour change bears a stoichiometric relationship to the number of paired electrons. Thus, antioxidant activity can be measured according to the change of absorbance. The greater the inhibition rate, the stronger the antioxidant capacity. […]
200 μL of peptide solution was added to 3.8 mL of the DPPH solution. […] The absorbance at 517 nm was measured and was denoted as A1. The absorbance of the blank control sample was denoted as A0. Thus, the percentage of the […] is calculated as: Clearance rate (%)=[A0−A1]/A0×100

[2] = Stability in phosphate buffer at different pHs (colour, HPLC peak area, purity); type: physicochemical; design: key to change of colour: NO means no colour changed was observed; + means a slight colour change is observed; ++ means a significant colour change is observed; conditions: for stability (overall result): phosphate buffer pH 5.3, 7.2, 8.1, room temperature then 45° C., 6 days
Protocol: Stabilities of Compounds A and B (obtained as described in Examples 1 and 3 above) were tested as follows.
10 mg of the compounds were each dissolved in 1 mL of distilled water to make a stock solution with a concentration of 10 mg/mL. Then, 200 μL of the stock solutions were diluted with 20 mM phosphate buffer (PB; Sigma-Aldrich China) with different pHs as indicated in Table 8 below.
All of the samples above were filtered through a 0.22 μm membrane (SLGV033RS; Sigma-Aldrich China) to remove potential bacteria in the solution on a super-clean bench after being prepared.
All the samples above were stored at room temperature and, three days later, were transferred to a 45° C. oven after initial sample analysis by HPLC (Column: Angilent ZORBAX Eclipse XDB-C18 (4.6×250 mm; 5 μm) (SN: USNH008244); buffer: A: 0.1% TFA in Water; B: 0.1% TFA in ACN; gradient: 0-25 minutes: 5%-30% B; 25-30 min: 100% B; flow rate: 1 mL/min; detection wavelength: 220 nm; sample volume: 20 μL).
The stability of the above samples was studied by observing the change of colour (Table 9), HPLC peak areas (Table 10) and purity (Table 11). The pH values for all samples were measured as being stable during the testing period.

[3] = system: closed comedones; test: Cream to treat closed comedones; type: in vivo, human; conditions: cream 0.1 mg/g, morning and evening
Protocol: Compound B (10 mg; see Example 1 above) was first dissolved in WFI (10 g).
A mixture was then made comprising sorbitan stearate (2 g), cetyl alcohol (4 g), octanoic/capric glyceride (6 g) and glyceryl monostearate (3 g) (all Sinopharm Chemical Reagent Co. Ltd.), which was stirred and heated to 85° C. to melt the mixture completely.
Glycerin (5 g; Sinopharm Chemical Reagent Co. Ltd.) and ammonium acryloyldimethyltaurate/VP copolymer (0.13 g; Clariant Chemical (Guangzhou) Co., Ltd., China) were mixed with 68.86 g of WFI. This mixture was stirred and heated to 85° C. to provide a homogeneous colloidal suspension.
The copolymer/water mixture was added to the sorbitan stearate-containing mixture, which was then quickly stirred using emulsification equipment for 5 minutes. The resultant emulsion was cooled to room temperature.
The Compound B solution was then added to the resultant mixture with stirring to obtain the finished cream. The concentration of Compound B in the final cream was 0.1 mg/g.
Subjects with closed comedones (blocked pores) and in an acute attacking period of acne were enrolled in the study. Symptoms included sebaceous glands blocked by keratinocytes, forming a slightly hard lump and a protruding white head.
The cream was evenly smeared in the morning and evening after facial cleansing.

[4] = system: fever; test: Aerosol inhalation to treat fever; type: in vivo, human
Protocol: The same formulation as described in Example 14 above was administered to a subject who enrolled in the study having had got a fever (a body temperature over 38.5° C.) for 1 day. Other anti-fever medications were not used prior to treatment.
The subject was required to use the aerosol inhalation device in the morning and in the evening by pouring 3 mL of the formulation into an atomizer storage tank connected to an atomizer and a mask, which was worn over the mouth and nose.

[5] = 20 mM phosphate buffer pH 5.3, Day 0
[6] = 20 mM phosphate buffer pH 7.2, Day 0
[7] = 20 mM phosphate buffer pH 8.1, Day 0
[8] = pH 5.3, Day 1, room temperature
[9] = pH 5.3, Day 3 (Transfer to 45° C.)
[10] = pH 7.2, Day 1, room temperature
[11] = pH 7.2, Day 3 (Transfer to 45° C.)
[12] = pH 8.1, Day 1, room temperature
[13] = pH 8.1, Day 3 (Transfer to 45° C.)

Molecule: Ala-Lys-Pro-Ser-Tyr-Hyp-Hyp-Thr-DOPA-Lys (AKPSY[3Hyp][Hyp]T[Dopa]K; listed as Mytilus edulis) [Compound A]
- DPPH clearance rate [1]: 52.11%
- HPLC peak area as area % of Day 0's result [2, 5]: 100%
- change of colour [2, 5]: NO
- purity (HPLC) in stability study [2, 5]: 99.4%
- HPLC peak area as area % of Day 0's result [2, 6]: 100%
- change of colour [2, 6]: NO
- purity (HPLC) in stability study [2, 6]: 98.9%
- HPLC peak area as area % of Day 0's result [2, 7]: 100%
- change of colour [2, 7]: NO
- purity (HPLC) in stability study [2, 7]: 96.3%
- oxidation judged by HPLC purity ([2]; at pH 7.2 and pH 8.1): most of Compound A was oxidized
- HPLC peak area as area % of Day 0's result [2, 8]: 100.1%
- change of colour [2, 8]: NO
- purity (HPLC) in stability study [2, 8]: 99.2%
- HPLC peak area as area % of Day 0's result [2, 9]: 100.3%
- change of colour [2, 9]: NO
- purity (HPLC) in stability study [2, 9]: 99.4%
- HPLC peak area as area % of Day 0's result ([2]; pH 5.3, Day 6 (45° C.)): 99.6%
- change of colour ([2]; pH 5.3, Day 6 (45° C.)): NO
- purity (HPLC) in stability study ([2]; pH 5.3, Day 6 (45° C.)): 98.0%
- HPLC peak area as area % of Day 0's result [2, 10]: 89.0%
- change of colour [2, 10]: +
- purity (HPLC) in stability study [2, 10]: 92.1%
- HPLC peak area as area % of Day 0's result [2, 11]: 41.7%
- change of colour [2, 11]: +
- purity (HPLC) in stability study [2, 11]: 94.8%
- HPLC peak area as area % of Day 0's result ([2]; pH 7.2, Day 6 (45° C.)): 11.5%
- change of colour ([2]; pH 7.2, Day 6 (45° C.)): ++
- purity (HPLC) in stability study ([2]; pH 7.2, Day 6 (45° C.)): 13.8%
- HPLC peak area as area % of Day 0's result [2, 12]: 64.8%
- change of colour [2, 12]: ++
- purity (HPLC) in stability study [2, 12]: 61.0%
- HPLC peak area as area % of Day 0's result [2, 13]: 21.7%
- change of colour [2, 13]: ++
- purity (HPLC) in stability study [2, 13]: 52.5%
- HPLC peak area as area % of Day 0's result ([2]; pH 8.1, Day 6 (45° C.)): 3.8%
- change of colour ([2]; pH 8.1, Day 6 (45° C.)): ++
- purity (HPLC) in stability study ([2]; pH 8.1, Day 6 (45° C.)): 3.9%
- stability (overall result) [2]: stable only at pH 5.3

Molecule: CC(N)C(=O)NC(CCCCN)C(=O)N1CCCC1C(=O)NC(CO)C(=O)NC(Cc1ccc(O)cc1)C(=O)N1CC(O)CC1C(=O)N1CC(O)CC1C(=O)NC(C(=O)NC(Cc1ccc(O)cc1)C(=O)NC(CCCCN)C(=O)O)C(C)O (stereo not drawn) [Compound B, Ala-Lys-Pro-Ser-Tyr-Hyp-Hyp-Thr-Tyr-Lys] (H-AKPSY[Hyp][Hyp]TYK-OH; configuration not given here)
- lumps of closed comedones [3]: disappeared after 1 day of use
- DPPH clearance rate [1]: 8.9%
- HPLC peak area as area % of Day 0's result [2, 5]: 100%
- change of colour [2, 5]: NO
- purity (HPLC) in stability study [2, 5]: 99.2%
- change of colour [2, 6]: NO
- purity (HPLC) in stability study [2, 6]: 99.6%
- HPLC peak area as area % of Day 0's result [2, 7]: 100%
- change of colour [2, 7]: NO
- purity (HPLC) in stability study [2, 7]: 99.5%
- HPLC peak areas over time ([2]; at pH 7.2 and pH 8.1): decreased significantly
- HPLC peak area as area % of Day 0's result [2, 8]: 100.0%
- change of colour [2, 8]: NO
- purity (HPLC) in stability study [2, 8]: 99.2%
- HPLC peak area as area % of Day 0's result [2, 9]: 99.9%
- change of colour [2, 9]: NO
- purity (HPLC) in stability study [2, 9]: 98.4%
- HPLC peak area as area % of Day 0's result ([2]; pH 5.3, Day 6 (45° C.)): 102.4%
- change of colour ([2]; pH 5.3, Day 6 (45° C.)): NO
- purity (HPLC) in stability study ([2]; pH 5.3, Day 6 (45° C.)): 99.0%
- change of colour [2, 10]: NO
- purity (HPLC) in stability study [2, 10]: 99.3%
- HPLC peak area as area % of Day 0's result [2, 11]: 100%
- change of colour [2, 11]: NO
- purity (HPLC) in stability study [2, 11]: 98.7%
- HPLC peak area as area % of Day 0's result ([2]; pH 7.2, Day 6 (45° C.)): 100.6%
- change of colour ([2]; pH 7.2, Day 6 (45° C.)): NO
- purity (HPLC) in stability study ([2]; pH 7.2, Day 6 (45° C.)): 98.2%
- HPLC peak area as area % of Day 0's result [2, 12]: 98.9%
- change of colour [2, 12]: NO
- purity (HPLC) in stability study [2, 12]: 99.4%
- HPLC peak area as area % of Day 0's result [2, 13]: 99.2%
- change of colour [2, 13]: NO
- purity (HPLC) in stability study [2, 13]: 98.4%
- HPLC peak area as area % of Day 0's result ([2]; pH 8.1, Day 6 (45° C.)): 97.0%
- change of colour ([2]; pH 8.1, Day 6 (45° C.)): NO
- purity (HPLC) in stability study ([2]; pH 8.1, Day 6 (45° C.)): 96.4%
- stability (overall result) [2]: stable at all pH values
- HPLC peak areas over time ([2]; three samples, pH 5.3, 7.2, 8.1): almost unchanged
- recurrence of fever symptoms ([4]; 0.5 mg/mL aerosol inhalation, morning and evening): did not recur after 3 uses
- body temperature ([4]; 0.5 mg/mL, 3 mL aerosol inhalation, subject with body temperature over 38.5° C.): within two hours, their body temperature had dropped to normal
